In PubChem BioAssay (NCI) one finds TGI and GI50 data, which are given here for 18 compounds.

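Interpolation was linear, between the two tested concentrations surrounding the appropriate level; five concentrations were tested over 48 hours in 96-well plates. Here, GI50 denotes the concentration required for 50% inhibition of growth. TGI marks complete inhibition of growth.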

Among the test systems are A498 renal; ACHN renal; DLD-1 colon; OVCAR-3 ovarian; SF-268 CNS; SF-539 CNS; 786-0 renal; IGROV1 ovarian; SK-MEL-5 melanoma; DU-145 prostate; MDA-N.
What all share (experiment): NCI-60 cell line screen, 48 h

Consider `Cc1cccc(NC(N)=S)c1`, for which the TGI with A498 renal, in the assay with ACHN renal, in the assay on DLD-1 colon, in the assay with OVCAR-3 ovarian, in the assay with SF-268 CNS and with SF-539 CNS was more than 100 µM in each case.
Consider `O=C(O)\C=C/C=C/C=C/C=C/C(=O)O`, for which the TGI in the assay with 786-0 renal, in the assay on A498 renal, in the assay on ACHN renal, with DLD-1 colon, with IGROV1 ovarian and in the assay on OVCAR-3 ovarian was more than 100 µM in each case. Besides, the TGI in the assay with SF-268 CNS, with SF-539 CNS and in the assay with SK-MEL-5 melanoma was more than 100 µM in each case.
Take `COc1ccc(C(=O)NNC(=O)c2nsc3ccccc23)cc1`: the TGI in the assay on IGROV1 ovarian, with OVCAR-3 ovarian, in the assay on SF-268 CNS, in the assay on SF-539 CNS and with SK-MEL-5 melanoma was more than 100 µM each time.
`N=C(N)SC(c1ccccc1)c1ccccc1`: the TGI in the assay on 786-0 renal was found to be 25.2 µM; in the assay on A498 renal, 36.6 µM; in the assay on ACHN renal, 29.8 µM; in the assay with DU-145 prostate, 25.4 µM; in the assay on IGROV1 ovarian, 42.8 µM; in the assay on MDA-N, 26.5 µM. In addition, the TGI with OVCAR-3 ovarian came out at 28.7 µM; in the assay with SF-268 CNS, 78.5 µM; in the assay with SF-539 CNS, 37.7 µM; with SK-MEL-5 melanoma, 32.2 µM.
Turning to `Cn1ncc2c(=O)[nH]c(-c3ccccc3)nc21`, the TGI in the assay on ACHN renal, in the assay with DLD-1 colon, in the assay on IGROV1 ovarian, in the assay with SF-268 CNS, with SF-539 CNS and in the assay with SK-MEL-5 melanoma was more than 100 µM in each case.
Regarding `NS(=O)(=O)c1ccc(C(=O)O)cc1`, the TGI in the assay with 786-0 renal, with A498 renal, in the assay on ACHN renal, in the assay on DU-145 prostate, with IGROV1 ovarian and with MDA-N was more than 100 µM throughout. The TGI in the assay on OVCAR-3 ovarian, in the assay on SF-268 CNS and in the assay with SK-MEL-5 melanoma was more than 100 µM in each case.
As to `COc1ccc2c(c1)C(=O)c1c-2n(CCCCl)c(=O)c2cc([N+](=O)[O-])ccc12`, the TGI was 0.159 µM in the assay with 786-0 renal; more than 100 µM with DU-145 prostate; 6.57 µM with IGROV1 ovarian; 14 µM in the assay on OVCAR-3 ovarian; 0.456 µM in the assay with SF-539 CNS; 2.07 µM in the assay with SK-MEL-5 melanoma. Also, the GI50 is 1.39 µM in the assay with A498 renal; less than 0.01 µM in the assay with ACHN renal; 0.0361 µM in the assay with DU-145 prostate; 0.0585 µM in the assay with IGROV1 ovarian; 1.32 µM with OVCAR-3 ovarian; less than 0.0262 µM in the assay on SF-268 CNS. The values for the GI50 in the assay with SF-539 CNS and with SK-MEL-5 melanoma were 0.11 µM and 0.498 µM, respectively.
For the compound `CC(C)(c1ccccc1)c1ccc(Oc2ccc3c(c2)-c2nc-3nc3[nH]c(nc4nc(nc5[nH]c(n2)c2ccc(Oc6ccc(C(C)(C)c7ccccc7)cc6)cc52)-c2cc(Oc5ccc(C(C)(C)c6ccccc6)cc5)ccc2-4)c2ccc(Oc4ccc(C(C)(C)c5ccccc5)cc4)cc32)cc1`, the TGI in the assay with 786-0 renal, in the assay with A498 renal, in the assay with ACHN renal, in the assay with DLD-1 colon, in the assay with IGROV1 ovarian and with SF-539 CNS was more than 100 µM in each case. The compound also registered a TGI in the assay on SK-MEL-5 melanoma of more than 100 µM.
Consider `Nc1ccc([As](=O)(O)O)cc1`, for which the TGI in the assay with 786-0 renal, in the assay with A498 renal, with ACHN renal, in the assay with DU-145 prostate, with IGROV1 ovarian and with MDA-N was more than 100 µM throughout. Besides, the TGI with OVCAR-3 ovarian, with SF-268 CNS, with SF-539 CNS and in the assay with SK-MEL-5 melanoma was more than 100 µM in each case.
Take `Cc1nc2ccccc2c(=O)n1Nc1ccc(C(=O)O)cc1`: the TGI in the assay on A498 renal, with DLD-1 colon, in the assay with IGROV1 ovarian, in the assay on OVCAR-3 ovarian, in the assay with SF-268 CNS and with SF-539 CNS was more than 100 µM throughout. This compound also yielded a TGI in the assay on SK-MEL-5 melanoma of more than 100 µM.
Turning to `COc1cc2c(cc1OCCCOc1cc3c(cc1OC)C(=O)N1CC(F)(F)C[C@H]1C=N3)N=C[C@@H]1CC(F)(F)CN1C2=O`, the TGI in the assay with 786-0 renal was determined as 0.877 µM; with A498 renal it was 2.65 µM; with ACHN renal, 13.9 µM; in the assay with DU-145 prostate it was 2.82 µM; with IGROV1 ovarian it was 2.33 µM; in the assay on OVCAR-3 ovarian, 6.99 µM. Further, the values for the TGI in the assay on SF-268 CNS, in the assay on SF-539 CNS and with SK-MEL-5 melanoma were 17.8 µM, 2.72 µM and 2.39 µM, respectively. In addition, the GI50 with A498 renal is 1.03 µM; with ACHN renal it was 0.973 µM; with DU-145 prostate, 0.329 µM; with IGROV1 ovarian it was 0.116 µM; in the assay on OVCAR-3 ovarian it was 0.42 µM; in the assay on SF-268 CNS, 0.216 µM. Besides, the GI50 with SF-539 CNS is 0.165 µM; in the assay with SK-MEL-5 melanoma, 1.15 µM.
Take `O=C1CC(c2ccccc2)NCCCCN2CC(CN1)C(C(O)c1ccccc1)C2=O` (stereo not drawn): the TGI in the assay on 786-0 renal, in the assay with A498 renal, with ACHN renal, with DU-145 prostate, in the assay with IGROV1 ovarian and with MDA-N was more than 100 µM throughout. Also, the TGI in the assay with OVCAR-3 ovarian, with SF-268 CNS, in the assay on SF-539 CNS and with SK-MEL-5 melanoma was more than 100 µM throughout.
On to `CC1(C)CCc2cc3c(cc2O1)OC(C)(C)CC3=O`, for which the TGI with ACHN renal, in the assay with DLD-1 colon, with IGROV1 ovarian, in the assay with OVCAR-3 ovarian, in the assay on SF-268 CNS and in the assay on SF-539 CNS was more than 100 µM throughout. Also, the TGI in the assay with SK-MEL-5 melanoma is 52.2 µM.
As to `Cc1cc(N2CCCCC2)nc(NCc2cc(Nc3ccnc4cc(Cl)ccc34)ccc2F)n1`, the GI50 with A498 renal was 0.178 µM; with ACHN renal, 1.66 µM; in the assay on DU-145 prostate, 1.49 µM; with OVCAR-3 ovarian, 1.74 µM; in the assay with SF-268 CNS it was 1.35 µM; in the assay on SF-539 CNS, 1.58 µM. Moreover, in the assay on SK-MEL-5 melanoma, the GI50 was 1.05 µM. The TGI is 0.999 µM in the assay on A498 renal; 3.25 µM with ACHN renal; 3.14 µM in the assay on DU-145 prostate; 3.17 µM with OVCAR-3 ovarian; 3.11 µM in the assay with SF-268 CNS; 3.04 µM with SF-539 CNS. In the assay on SK-MEL-5 melanoma, this compound returned a TGI of 2.25 µM.
In the case of `CCc1cc(C)cc2[n+]1CC=C2C`, the TGI in the assay on 786-0 renal, in the assay on ACHN renal, with DLD-1 colon, in the assay with OVCAR-3 ovarian, in the assay on SF-268 CNS and in the assay on SF-539 CNS was more than 100 µM each time. For the same compound, the TGI with SK-MEL-5 melanoma is more than 100 µM.
As for `CC1(C)CCCC2(C)C3=C(CCC12)C(=O)OC3` (stereo not drawn), the TGI with 786-0 renal, in the assay with A498 renal, in the assay on ACHN renal, in the assay on DU-145 prostate, in the assay on IGROV1 ovarian and in the assay on MDA-N was more than 100 µM each time. Further, the TGI with OVCAR-3 ovarian, in the assay on SF-268 CNS, in the assay on SF-539 CNS and in the assay with SK-MEL-5 melanoma was more than 100 µM throughout.
Turning to `CCCCCCCCCCCCCCC(C(=O)[O-])[n+]1ccccc1` (stereo not drawn), the TGI with 786-0 renal, in the assay with A498 renal, with ACHN renal, with DU-145 prostate, with IGROV1 ovarian and in the assay on MDA-N was more than 100 µM each time. Moreover, the TGI with OVCAR-3 ovarian, in the assay on SF-268 CNS, in the assay on SF-539 CNS and in the assay on SK-MEL-5 melanoma was more than 100 µM throughout.
In the case of `CN(C)C=O.CN(C)C=O.CN1C(C(=O)Nc2ccccn2)=C([O-])c2ccccc2S1(=O)=O.CN1C(C(=O)Nc2ccccn2)=C([O-])c2ccccc2S1(=O)=O.[Cu+2]`, the TGI is more than 100 µM in the assay with 786-0 renal; 65.3 µM in the assay on A498 renal; more than 100 µM with ACHN renal; more than 100 µM with IGROV1 ovarian; more than 100 µM in the assay on OVCAR-3 ovarian; more than 100 µM in the assay with SF-268 CNS. The TGI in the assay with SF-539 CNS was more than 100 µM; in the assay on SK-MEL-5 melanoma, 36.8 µM. Besides, the values for the GI50 in the assay on A498 renal and in the assay on IGROV1 ovarian were 24.2 µM and 36.3 µM, respectively.
